In ChEMBL document CHEMBL1148564, “Synthesis and interactions of 7-deoxy-, 10-deacetoxy, and 10-deacetoxy-7-deoxypaclitaxel with NCI/ADR-RES cancer cells and bovine brain microvessel endothelial cells” (Bioorg Med Chem Lett, 2006):

Experiments:
[1] = molecular target: T1, Tubulin (Homo sapiens) (UniProt P68371+Q9H4B7+P0DPH7+P68366+Q13509+Q71U36+P04350+Q3ZCM7+P07437+P68363+Q9BQE3+Q6PEY2+Q13885+Q9BVA1+Q9BUF5); assay: Antiproliferative activity against NCI/ADR-RES […] cancer cell line relative to paclitaxel; type: functional, cell-based
[2] = molecular target: T1, Tubulin (Homo sapiens); assay: Effect on tubulin polymerization by tubulin assembly assay relative to paclitaxel; type: protein-complex assay
[3] = system: MCF7; assay: Antiproliferative activity against MCF7 breast cancer cell line relative to paclitaxel; type: functional, Homo sapiens

| Compound | Ratio ED50 [1] | Ratio ED50 [2] | Ratio ED50 [3] |
| --- | --- | --- | --- |
| CC(=O)O[C@@]12CO[C@@H]1CC[C@@]1(C)C(=O)CC3=C(C)[C@@H](OC(=O)[C@H](O)[C@@H](NC(=O)c4ccccc4)c4ccccc4)C[C@@](O)([C@@H](OC(=O)c4ccccc4)[C@H]21)C3(C)C | 0.21 | 2 | 9 |
| CC(=O)O[C@H]1C(=O)[C@]2(C)CC[C@H]3OC[C@@]3(OC(C)=O)[C@H]2[C@H](OC(=O)c2ccccc2)[C@]2(O)C[C@H](OC(=O)[C@H](O)[C@@H](NC(=O)c3ccccc3)c3ccccc3)C(C)=C1C2(C)C | 1 | 1.4 | 30 |
| CC(=O)O[C@@]12CO[C@@H]1C[C@H](O)[C@@]1(C)C(=O)CC3=C(C)[C@@H](OC(=O)[C@H](O)[C@@H](NC(=O)c4ccccc4)c4ccccc4)C[C@@](O)([C@@H](OC(=O)c4ccccc4)[C@H]21)C3(C)C | 0.79 | 2.2 | 0.87 |
